# Patent US11279708B2, “Amidino- and amino-rocaglates as novel translation inhibitors and anticancer agents” (priority 2019, dated 2022)
# Target: T1, eIF4A1:poly r(AG)10 (Homo sapiens, UniProt P60842)
# T1 construct: His6 (N); made in house; host or cells: E. coli BL21 (DE3)
# Experiment: FP competition assay, dissociation of eIF4A from (AG)10 RNA
# Format: binding
# Settings: in the presence of compound
# Protocol: All of these identified compounds retained similar RNA sequence binding preference for eIF4A1 with a bias for polypurine-containing substrates over polypyrimidines (FIG. 17). […] Even in the presence of ATP, which stimulates release of eIF4A from RNA, the half-life of the complexes were much longer than the rates of translation initiation (median <1 min)
# Rocaglates sequester eIF4F onto RNA. RocA (2) induced clamping of eIF4A to 5′ leader regions have been proposed to inhibit translation by blocking scanning of 43S PICs. We therefore sought to test if this mechanism was sufficient to account for the translation inhibition observed with RocA, CR-1-31-B (23), and the newly identified ADRs. We supplemented translation extracts programmed with m^7G-(AG)10-FF/HCV/Ren mRNA with wild-type (wt) or rocaglate-resistant eIF4A1(F163L) recombinant protein. […] Thus, if stabilization of endogenous eIF4A in translation extracts onto mRNA is sufficient to mediate translation inhibition, then the addition of recombinant eIF4A1^F163L should not be able to rescue this inhibition. […]
# FIG. 21. […] FP results of competition assays in which preformed eIF4A1:rocaglate:FAM-poly r(AG)10 complexes were incubated in the presence of poly r(AG)10 (SEQ ID NO: 39) and dissociation measured as a function of time. n=3±SD.
# T1 sequence (P60842 whole entry, species assumed): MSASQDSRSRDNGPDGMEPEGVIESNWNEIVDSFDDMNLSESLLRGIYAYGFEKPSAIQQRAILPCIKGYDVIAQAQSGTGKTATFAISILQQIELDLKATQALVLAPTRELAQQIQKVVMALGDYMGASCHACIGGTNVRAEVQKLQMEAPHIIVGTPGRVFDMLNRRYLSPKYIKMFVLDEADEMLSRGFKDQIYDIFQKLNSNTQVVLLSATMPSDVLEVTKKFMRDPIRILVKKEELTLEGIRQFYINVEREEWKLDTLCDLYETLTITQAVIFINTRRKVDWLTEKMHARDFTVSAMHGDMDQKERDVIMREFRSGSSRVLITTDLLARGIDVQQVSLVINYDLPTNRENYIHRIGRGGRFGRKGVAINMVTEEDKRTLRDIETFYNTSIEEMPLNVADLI
smiles,measurement,value
"COc1ccc([C@@]23Oc4cc(OC)cc(OC)c4[C@]2(O)[C@H](O)[C@H](C(=O)N(C)C)[C@H]3c2ccccc2)cc1 [RocA, rocaglamide A]","dissociation of eIF4A from (AG)10, t1/2",27 min
